Results as given in patent US20170065730A1, “COMPOSITION FOR IMAGING ATHEROSCLEROSIS AND METHOD FOR DIAGNOSING ATHEROSCLEROSIS BY USING SAME” (priority 2014, published 2017).

Test system: atherosclerotic site of the aorta
Experiment: Fluorescence imaging of aorta sections after ear vein injection of RITC-MSA or RITC
Assay type: in vivo
Conditions: cholesterol diet rabbit, 10 minutes after ear vein injection
Method: Ten 12-week-old normal rabbits (New Zealand White rabbits) were used for experiment. They were randomly divided into two groups of 5 rabbits. One group was given a normal diet and the other group was given a diet containing 1% cholesterol. The animals were kept under a standardized condition (21° C., 41-62% humidity) with regular light/dark (10/14 hr) cycles and were given free access to water and feed. 3 months later, after intravenously injecting 1 mCi of ^68Ga-MSA under anesthesia, positron emission tomography was performed on the whole body for 10 minutes from 10 minutes after the injection (FIGS. 5 and 6). On the next day, the rabbits were anesthetized and RITC-MSA (42 μg/0.1 mL) or RITC mixed in 0.9% physiological saline was injected into the ear vein of the rabbits. 10 minutes later, the rabbits were euthanized and the aorta was cut and kept at −20° C. The aorta sections were fixed at room temperature for 30 minutes in a 4% (v/v) buffered formalin solution, washed with cold PBS (pH 7.4), embedded in optimum cutting temperature compound (OCT, Sakura, Tokyo) and kept at −80° C. after a day for tissue penetration. Tissue slices cut to a thickness of […] were mounted on slides together with poly-D-lysine and then kept at room temperature until use after drying at 45° C. in the shade. […]

Substance: rhodamine B isothiocyanate [RITC]
- fluorescence / binding at the atherosclerotic site of the aorta: cannot be observed
